Molecular target: MAP kinase-activated protein kinase 2 (Homo sapiens, UniProt P49137)
Assay: Inhibition of human recombinant MK2 expressed in Escherichia coli BL21(DE3) after 60 mins

Chain of MAP kinase-activated protein kinase 2 (P49137 whole entry): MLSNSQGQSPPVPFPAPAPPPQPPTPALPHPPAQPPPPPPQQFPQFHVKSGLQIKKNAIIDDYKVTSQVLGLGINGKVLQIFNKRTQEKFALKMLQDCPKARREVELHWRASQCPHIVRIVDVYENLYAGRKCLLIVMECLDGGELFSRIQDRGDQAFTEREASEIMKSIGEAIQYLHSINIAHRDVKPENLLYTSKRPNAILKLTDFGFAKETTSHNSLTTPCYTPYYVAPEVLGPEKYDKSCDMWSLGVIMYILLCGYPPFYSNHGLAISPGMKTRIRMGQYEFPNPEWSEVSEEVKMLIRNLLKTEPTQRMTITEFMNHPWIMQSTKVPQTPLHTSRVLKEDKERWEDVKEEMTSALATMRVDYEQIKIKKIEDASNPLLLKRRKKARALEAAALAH

Row | Compound | IC50 [µM]
1 | Oc1cccc2cnccc12 | 85
2 | Oc1cccc2ccccc12 [1-NAPHTHOL] | > 100
